Common to all, as to test: Methyl transferase scintillation proximity assay
Holding throughout (format): biochemical
What all share (details): average of two measurements; for inhibition at 10 µM: read-out: MTases Inhibition (%)
Background: Scintillation proximity formats need no separation of bound from free tracer.

One assay has as its target T1, SMYD2 (Homo sapiens, UniProt Q9NRG4).
T1 construct: purchased DiscoverX BROMOscan (bromodomains); SGC in-house methyltransferase panel
Put shortly:
(§1)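 ^3H-SAM + biotinylated substrate, both ~apparent Km per enzyme. Quench: 7.5 M guanidine HCl; dilute in 20 mM Tris pH 8.0; FlashPlate capture 1 h; read CPM. No-compound = 100%, no-enzyme = 0% activity.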

The next assay has as its target T2, SUV39H2 (Homo sapiens, UniProt Q9H5I1).
T2 construct: purchased DiscoverX BROMOscan (bromodomains); SGC in-house methyltransferase panel
Put shortly: as §1

For the next assay, the target named is T3, GLP (Homo sapiens, UniProt Q9H9B1).
T3 construct: purchased DiscoverX BROMOscan (bromodomains); SGC in-house methyltransferase panel
T3 sequence (Q9H9B1 1-1298): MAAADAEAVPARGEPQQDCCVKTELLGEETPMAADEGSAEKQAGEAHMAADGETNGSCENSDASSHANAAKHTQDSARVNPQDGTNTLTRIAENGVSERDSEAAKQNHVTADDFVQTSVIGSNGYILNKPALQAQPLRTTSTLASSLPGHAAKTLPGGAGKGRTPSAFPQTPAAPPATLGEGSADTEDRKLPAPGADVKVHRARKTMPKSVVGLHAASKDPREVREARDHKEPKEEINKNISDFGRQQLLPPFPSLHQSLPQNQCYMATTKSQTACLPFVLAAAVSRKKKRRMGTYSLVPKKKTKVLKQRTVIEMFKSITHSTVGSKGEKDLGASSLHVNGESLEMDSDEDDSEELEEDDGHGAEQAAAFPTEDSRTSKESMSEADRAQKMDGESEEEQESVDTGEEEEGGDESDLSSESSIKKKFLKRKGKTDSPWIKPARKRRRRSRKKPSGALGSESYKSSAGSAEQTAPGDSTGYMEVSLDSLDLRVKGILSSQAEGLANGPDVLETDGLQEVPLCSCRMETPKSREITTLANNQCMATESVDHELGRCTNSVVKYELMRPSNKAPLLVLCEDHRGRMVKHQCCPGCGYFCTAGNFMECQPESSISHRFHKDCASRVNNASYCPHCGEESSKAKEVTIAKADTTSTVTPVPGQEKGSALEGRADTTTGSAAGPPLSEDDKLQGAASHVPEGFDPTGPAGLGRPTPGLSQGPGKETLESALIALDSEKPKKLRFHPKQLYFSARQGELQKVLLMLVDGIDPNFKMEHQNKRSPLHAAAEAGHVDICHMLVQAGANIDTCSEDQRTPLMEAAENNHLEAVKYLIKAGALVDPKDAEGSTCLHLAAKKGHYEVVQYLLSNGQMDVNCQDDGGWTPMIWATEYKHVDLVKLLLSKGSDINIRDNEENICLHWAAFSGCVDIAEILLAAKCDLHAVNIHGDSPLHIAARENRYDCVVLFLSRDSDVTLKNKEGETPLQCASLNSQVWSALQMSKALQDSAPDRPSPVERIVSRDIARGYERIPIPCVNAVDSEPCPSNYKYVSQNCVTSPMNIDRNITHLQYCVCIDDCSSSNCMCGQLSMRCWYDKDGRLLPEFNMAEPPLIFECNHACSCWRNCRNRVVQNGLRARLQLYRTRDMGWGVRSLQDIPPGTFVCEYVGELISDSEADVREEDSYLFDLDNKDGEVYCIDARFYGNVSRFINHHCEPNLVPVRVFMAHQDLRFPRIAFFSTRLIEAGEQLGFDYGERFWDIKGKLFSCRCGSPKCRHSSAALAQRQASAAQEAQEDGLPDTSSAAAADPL
Put shortly: as §1

A further assay addresses T4, ASH1L (Homo sapiens, UniProt Q9NR48).
T4 construct: purchased DiscoverX BROMOscan (bromodomains); SGC in-house methyltransferase panel
Put shortly:
as §1

Another assay addresses T5, SUV39H1 (Homo sapiens, UniProt O43463).
T5 construct: purchased DiscoverX BROMOscan (bromodomains); SGC in-house methyltransferase panel
T5 sequence (O43463 1-412): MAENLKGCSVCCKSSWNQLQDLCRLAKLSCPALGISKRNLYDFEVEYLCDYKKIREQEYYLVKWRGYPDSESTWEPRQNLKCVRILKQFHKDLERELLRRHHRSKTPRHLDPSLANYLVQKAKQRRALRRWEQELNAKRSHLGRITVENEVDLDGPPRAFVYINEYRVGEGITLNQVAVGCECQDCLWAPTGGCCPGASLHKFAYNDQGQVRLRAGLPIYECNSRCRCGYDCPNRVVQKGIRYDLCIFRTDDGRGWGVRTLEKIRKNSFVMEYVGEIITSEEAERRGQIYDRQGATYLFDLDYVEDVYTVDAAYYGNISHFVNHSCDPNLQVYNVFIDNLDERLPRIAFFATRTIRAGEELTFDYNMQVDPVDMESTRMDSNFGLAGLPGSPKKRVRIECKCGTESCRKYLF
In short, it runs like this:
as §1

A further assay concerns the target T6, BCDIN3D (Homo sapiens, UniProt Q7Z5W3).
T6 construct: purchased DiscoverX BROMOscan (bromodomains); SGC in-house methyltransferase panel
T6 sequence (Q7Z5W3 1-292): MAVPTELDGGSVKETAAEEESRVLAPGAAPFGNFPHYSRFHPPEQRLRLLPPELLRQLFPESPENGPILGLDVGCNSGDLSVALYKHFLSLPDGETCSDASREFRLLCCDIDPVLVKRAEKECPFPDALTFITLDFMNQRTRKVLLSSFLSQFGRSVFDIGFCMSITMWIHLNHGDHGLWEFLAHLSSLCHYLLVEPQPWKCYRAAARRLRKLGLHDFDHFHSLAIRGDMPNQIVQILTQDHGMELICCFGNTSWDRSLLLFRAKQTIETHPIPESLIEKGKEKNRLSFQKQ
In short, it runs like this:
as §1

A further assay addresses T7, SUV420H2 (Homo sapiens, UniProt Q86Y97).
T7 construct: purchased DiscoverX BROMOscan (bromodomains); SGC in-house methyltransferase panel
In short, it runs like this:
as §1

The next assay concerns the target T8, NSD1 (Homo sapiens, UniProt Q96L73).
T8 construct: purchased DiscoverX BROMOscan (bromodomains); SGC in-house methyltransferase panel
Put shortly: as §1

The target of a further assay is T9, PRDM9 (Homo sapiens, UniProt Q9NQV7).
T9 construct: purchased DiscoverX BROMOscan (bromodomains); SGC in-house methyltransferase panel
T9 sequence (Q9NQV7 whole entry): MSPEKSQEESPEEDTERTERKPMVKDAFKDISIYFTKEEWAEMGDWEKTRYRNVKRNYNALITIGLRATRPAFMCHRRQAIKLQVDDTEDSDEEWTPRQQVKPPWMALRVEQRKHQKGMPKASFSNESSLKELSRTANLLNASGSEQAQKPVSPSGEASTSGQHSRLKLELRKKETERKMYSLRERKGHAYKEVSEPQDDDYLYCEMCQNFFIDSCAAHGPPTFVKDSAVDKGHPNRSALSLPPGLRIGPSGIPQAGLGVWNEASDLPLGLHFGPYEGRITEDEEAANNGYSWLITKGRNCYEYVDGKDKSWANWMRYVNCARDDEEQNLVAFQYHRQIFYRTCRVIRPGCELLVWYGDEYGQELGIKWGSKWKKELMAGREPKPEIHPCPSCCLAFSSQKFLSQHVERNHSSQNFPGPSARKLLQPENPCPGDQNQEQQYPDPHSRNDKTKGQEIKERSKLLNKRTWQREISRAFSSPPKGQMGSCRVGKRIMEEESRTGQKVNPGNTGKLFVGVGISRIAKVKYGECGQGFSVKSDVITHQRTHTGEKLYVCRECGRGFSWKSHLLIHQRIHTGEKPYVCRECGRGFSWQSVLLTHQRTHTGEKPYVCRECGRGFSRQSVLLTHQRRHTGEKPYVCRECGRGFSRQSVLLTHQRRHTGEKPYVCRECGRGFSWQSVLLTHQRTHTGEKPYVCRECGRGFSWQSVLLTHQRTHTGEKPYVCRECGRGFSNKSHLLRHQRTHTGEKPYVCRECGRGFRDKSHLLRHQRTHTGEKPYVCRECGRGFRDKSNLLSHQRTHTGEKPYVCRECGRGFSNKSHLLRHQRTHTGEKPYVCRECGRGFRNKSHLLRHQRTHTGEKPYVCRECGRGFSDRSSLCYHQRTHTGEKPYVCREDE
In short, it runs like this:
as §1

For orientation: inhibition means the drop in the measured response relative to a control, in per cent.

T2 sequence (Q9H5I1 whole entry): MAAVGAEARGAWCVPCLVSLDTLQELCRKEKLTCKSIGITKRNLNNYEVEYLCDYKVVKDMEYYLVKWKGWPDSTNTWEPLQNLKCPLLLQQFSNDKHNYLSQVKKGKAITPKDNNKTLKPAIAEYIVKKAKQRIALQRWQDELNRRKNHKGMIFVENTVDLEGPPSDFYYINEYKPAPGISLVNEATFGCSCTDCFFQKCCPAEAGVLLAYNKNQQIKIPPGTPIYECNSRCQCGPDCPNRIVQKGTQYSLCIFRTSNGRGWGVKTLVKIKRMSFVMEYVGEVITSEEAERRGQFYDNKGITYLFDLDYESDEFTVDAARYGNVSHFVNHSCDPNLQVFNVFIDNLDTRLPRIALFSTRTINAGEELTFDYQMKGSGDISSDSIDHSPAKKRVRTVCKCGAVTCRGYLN
T7 sequence (Q86Y97 whole entry): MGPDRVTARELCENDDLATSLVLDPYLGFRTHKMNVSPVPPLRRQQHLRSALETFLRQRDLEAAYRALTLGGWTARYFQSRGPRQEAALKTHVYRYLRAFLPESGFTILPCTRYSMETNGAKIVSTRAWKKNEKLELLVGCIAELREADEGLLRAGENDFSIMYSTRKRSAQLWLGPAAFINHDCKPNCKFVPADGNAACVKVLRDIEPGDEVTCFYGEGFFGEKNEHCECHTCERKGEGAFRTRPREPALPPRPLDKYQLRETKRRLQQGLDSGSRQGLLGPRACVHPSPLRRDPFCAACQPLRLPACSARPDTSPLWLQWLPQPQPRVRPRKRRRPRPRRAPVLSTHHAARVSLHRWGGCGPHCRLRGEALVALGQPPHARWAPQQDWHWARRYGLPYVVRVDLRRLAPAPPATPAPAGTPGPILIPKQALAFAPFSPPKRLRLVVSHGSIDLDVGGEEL
T1 sequence (Q9NRG4 whole entry): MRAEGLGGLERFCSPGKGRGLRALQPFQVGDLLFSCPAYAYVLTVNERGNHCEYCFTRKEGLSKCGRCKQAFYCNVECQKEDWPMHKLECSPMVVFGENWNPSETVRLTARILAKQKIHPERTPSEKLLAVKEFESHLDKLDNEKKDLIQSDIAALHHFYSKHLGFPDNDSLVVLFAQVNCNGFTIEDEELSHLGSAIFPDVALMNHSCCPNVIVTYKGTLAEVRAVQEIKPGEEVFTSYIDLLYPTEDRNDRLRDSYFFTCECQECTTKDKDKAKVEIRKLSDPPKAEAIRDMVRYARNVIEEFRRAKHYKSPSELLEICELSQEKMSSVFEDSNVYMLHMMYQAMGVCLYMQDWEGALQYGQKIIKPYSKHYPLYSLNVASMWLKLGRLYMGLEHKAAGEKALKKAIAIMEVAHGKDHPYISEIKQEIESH
T8 sequence (Q96L73 whole entry): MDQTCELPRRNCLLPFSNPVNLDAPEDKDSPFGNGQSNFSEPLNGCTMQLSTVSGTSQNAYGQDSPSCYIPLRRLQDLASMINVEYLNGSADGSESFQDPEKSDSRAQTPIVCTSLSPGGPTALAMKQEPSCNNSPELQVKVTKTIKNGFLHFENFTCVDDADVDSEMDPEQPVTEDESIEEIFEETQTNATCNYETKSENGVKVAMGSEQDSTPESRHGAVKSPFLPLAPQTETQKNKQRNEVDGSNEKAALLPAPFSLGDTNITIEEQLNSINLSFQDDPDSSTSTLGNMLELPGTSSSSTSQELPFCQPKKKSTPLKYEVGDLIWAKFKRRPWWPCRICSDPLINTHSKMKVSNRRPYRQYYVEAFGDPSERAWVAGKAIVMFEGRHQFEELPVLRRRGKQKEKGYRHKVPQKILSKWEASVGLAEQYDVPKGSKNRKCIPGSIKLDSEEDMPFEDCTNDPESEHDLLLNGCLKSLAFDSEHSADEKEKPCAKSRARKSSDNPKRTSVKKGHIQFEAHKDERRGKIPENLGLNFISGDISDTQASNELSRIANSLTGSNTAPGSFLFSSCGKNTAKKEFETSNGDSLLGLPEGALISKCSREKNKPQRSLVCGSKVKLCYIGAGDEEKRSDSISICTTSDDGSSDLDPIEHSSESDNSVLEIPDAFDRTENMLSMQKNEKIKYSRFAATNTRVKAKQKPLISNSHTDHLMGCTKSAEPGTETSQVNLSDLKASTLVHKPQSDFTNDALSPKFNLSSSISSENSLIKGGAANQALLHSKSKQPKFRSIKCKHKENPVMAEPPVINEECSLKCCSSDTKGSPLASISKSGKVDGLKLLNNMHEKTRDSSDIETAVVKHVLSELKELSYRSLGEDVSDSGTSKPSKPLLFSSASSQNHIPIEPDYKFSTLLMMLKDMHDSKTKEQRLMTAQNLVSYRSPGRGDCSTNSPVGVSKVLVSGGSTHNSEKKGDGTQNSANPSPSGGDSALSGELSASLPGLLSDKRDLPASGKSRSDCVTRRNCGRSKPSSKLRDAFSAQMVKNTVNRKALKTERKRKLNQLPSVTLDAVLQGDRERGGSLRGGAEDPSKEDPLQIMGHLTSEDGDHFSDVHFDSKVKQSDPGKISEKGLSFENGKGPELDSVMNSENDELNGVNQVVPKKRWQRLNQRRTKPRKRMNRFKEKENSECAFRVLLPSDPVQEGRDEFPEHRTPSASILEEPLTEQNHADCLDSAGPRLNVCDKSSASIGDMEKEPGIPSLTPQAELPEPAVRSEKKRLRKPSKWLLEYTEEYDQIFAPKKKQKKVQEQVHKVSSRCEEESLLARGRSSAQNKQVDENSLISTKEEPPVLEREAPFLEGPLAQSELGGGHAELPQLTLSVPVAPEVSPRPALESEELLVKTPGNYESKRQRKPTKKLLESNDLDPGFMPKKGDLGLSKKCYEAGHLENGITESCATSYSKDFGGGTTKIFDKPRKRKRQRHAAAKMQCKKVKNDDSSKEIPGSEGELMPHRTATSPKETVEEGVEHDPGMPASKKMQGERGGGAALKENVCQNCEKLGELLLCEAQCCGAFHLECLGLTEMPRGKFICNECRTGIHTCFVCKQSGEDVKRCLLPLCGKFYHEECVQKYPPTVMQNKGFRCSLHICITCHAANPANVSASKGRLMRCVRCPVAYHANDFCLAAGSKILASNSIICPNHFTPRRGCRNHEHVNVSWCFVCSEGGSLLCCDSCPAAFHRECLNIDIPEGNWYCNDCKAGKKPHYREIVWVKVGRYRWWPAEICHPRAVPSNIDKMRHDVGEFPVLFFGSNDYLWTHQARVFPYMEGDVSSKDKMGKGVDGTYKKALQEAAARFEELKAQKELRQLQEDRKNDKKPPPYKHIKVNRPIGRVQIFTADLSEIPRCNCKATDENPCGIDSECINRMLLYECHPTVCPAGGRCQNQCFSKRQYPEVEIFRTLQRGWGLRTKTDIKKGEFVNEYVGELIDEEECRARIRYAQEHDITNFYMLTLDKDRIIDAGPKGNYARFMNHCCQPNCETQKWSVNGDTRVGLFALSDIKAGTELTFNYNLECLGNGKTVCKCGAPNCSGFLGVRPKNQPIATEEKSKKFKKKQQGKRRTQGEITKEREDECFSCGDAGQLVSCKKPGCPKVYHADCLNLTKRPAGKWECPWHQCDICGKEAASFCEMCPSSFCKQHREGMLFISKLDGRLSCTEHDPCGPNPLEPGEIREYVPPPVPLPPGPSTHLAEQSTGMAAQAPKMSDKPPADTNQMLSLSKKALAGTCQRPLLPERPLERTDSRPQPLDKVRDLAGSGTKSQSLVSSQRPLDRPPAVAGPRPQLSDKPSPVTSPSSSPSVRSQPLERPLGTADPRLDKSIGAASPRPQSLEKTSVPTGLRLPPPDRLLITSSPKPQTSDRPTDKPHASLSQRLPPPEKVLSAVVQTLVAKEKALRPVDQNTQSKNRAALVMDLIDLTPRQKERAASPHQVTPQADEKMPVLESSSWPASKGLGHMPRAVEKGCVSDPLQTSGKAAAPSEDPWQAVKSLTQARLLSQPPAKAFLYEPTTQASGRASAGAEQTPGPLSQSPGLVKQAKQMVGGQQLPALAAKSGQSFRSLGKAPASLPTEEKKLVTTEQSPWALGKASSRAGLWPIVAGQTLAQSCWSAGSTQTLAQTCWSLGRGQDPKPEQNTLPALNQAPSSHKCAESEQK

For the compound `Cc1nnc2c3ccccc3c(N[C@@H](C)[C@H](c3ccccc3)N(C)C)nn12` [L-Moses], the inhibition at 10 µM at SMYD2 was -10%; at SUV39H2, 5%; on GLP, 2%; on ASH1L, -3%; at SUV39H1, -2%; on BCDIN3D, 9%. The figures for the inhibition at 10 µM on SUV420H2, on NSD1 and at PRDM9 were 6%, -6% and 4%, respectively.
Regarding `CN(C)CCCOc1ccc(-c2cc(NCCCn3cccn3)nc(S(C)(=O)=O)n2)cc1` [TP-238], the inhibition at 10 µM is -2% at SMYD2; 7% at SUV39H2; 1% at GLP; -4% at ASH1L; -1% at SUV39H1; 4% on BCDIN3D. Moreover, the inhibition at 10 µM at SUV420H2 is 0%; at NSD1 it was 1%; at PRDM9, -1%.
For `Cc1c(NC(=O)c2cc(C(N)=O)nc3cc(F)ccc23)c(C(F)(F)F)nn1Cc1ccc(C(C)(C)C)cc1` [BAY-588], the inhibition at 10 µM on SMYD2 was 8%; at SUV39H2 it was 12%; at GLP, 2%; at ASH1L, -6%; on SUV39H1, 12%; at BCDIN3D, 16%. In addition, the inhibition at 10 µM was -3% on SUV420H2, 11% at NSD1 and 3% on PRDM9.
On to `Cc1c(NC(=O)c2cc(C(N)=O)nc3cc(F)ccc23)c(C(F)(F)F)nn1Cc1ccc(C#N)cc1` [BAY-876], for which the inhibition at 10 µM at SMYD2 was -10%; on SUV39H2 it was -2%; on GLP, 0%; at ASH1L, 4%; at SUV39H1, 16%; on BCDIN3D it was 17%. Also, the values for the inhibition at 10 µM on SUV420H2, on NSD1 and on PRDM9 were -1%, 2% and 0%, respectively.
As for `COc1ccccc1C(=O)Nc1cc2c(cc1N1CCNC[C@H]1C)n(C)c(=O)n2C` [GSK6853], the “MTases Inhibition (%)” value was -3% on SMYD2 (10µM); 1% on SUV39H2 (10µM); 3% on GLP (10µM); 4% at ASH1L (10µM); -3% on SUV39H1 (10µM); 5% on BCDIN3D (10µM). Moreover, the “MTases Inhibition (%)” value was -2% at SUV420H2 (10µM), 1% on NSD1 (10µM) and -2% on PRDM9 (10µM).
On to `CO[C@H]1CNC[C@@H](OCC2CCC(F)(F)CC2)[C@@H]1Nc1ncc(-c2cncc(C)c2)c2cc(C)c(=O)[nH]c12` [GSK8814], for which the inhibition at 10 µM is -2% on SMYD2; 3% at SUV39H2; 2% on GLP; 2% on ASH1L; -2% at SUV39H1; 7% at BCDIN3D. The inhibition at 10 µM is 0% at SUV420H2, 19% at NSD1 and 0% on PRDM9.
For the compound `COc1cc(Cl)c(C(=O)N[C@@H](CN[C@H]2CC[C@@H](N)CC2)Cc2ccc(C#N)cc2)cc1-c1ccc(CN[C@H](C)c2ccc(C)cc2)o1` [BAY-850], the inhibition at 10 µM at SMYD2 is 19%; at SUV39H2, -2%; on GLP, 2%; at ASH1L it was 3%; on SUV39H1 it was 5%; at BCDIN3D it was 28%. The inhibition at 10 µM on SUV420H2 came out at 0%; on NSD1, 2%; on PRDM9 it was 10%.
Turning to `CN1C[C@H](Nc2cnn(C)c(=O)c2Br)C[C@H](c2ccccc2)C1` [GSK4027], the inhibition at 10 µM is 2% on SMYD2; 5% at SUV39H2; 2% on GLP; 13% at ASH1L; -3% at SUV39H1; 14% at BCDIN3D. Besides, the inhibition at 10 µM at SUV420H2 is -1%; on NSD1, 4%; on PRDM9, 3%.

These data come from publication PMC6478789, “A chemical toolbox for the study of bromodomains and epigenetic signaling” (Nature Communications, 2019).
